Numbers after ± are expanded uncertainties.
Experiment: activity coefficient (dimensionless); of the first substance listed, at infinite dilution; xn = mol fraction of the nth substance listed
Details: 323.15 K; 101 kPa; Liquid; Chromatography; x1 = 0

| activity coefficient | SMILES |
| --- | --- |
| 1.3 ± 0.08 | C1COCCO1 [1,4-dioxane] + C=CC[n+]1ccn(CCCCCCCCCCCC)c1.[Br-] |
| 1.59 ± 0.11 | C1COCCO1 [1,4-dioxane] + C=CCn1cc[n+](C)c1.[Br-] |
| 1.32 ± 0.09 | C1COCCO1 [1,4-dioxane] + CCCCCCCCCCCC[n+]1ccn(CCCB(O)O)c1.[Br-] |
| 1.38 ± 0.09 | C1COCCO1 [1,4-dioxane] + CCCCCCCCCC[n+]1ccn(CCCB(O)O)c1.[Br-] |
| 1.78 ± 0.12 | C1COCCO1 [1,4-dioxane] + CCCCCCCC[n+]1ccn(CCCB(O)O)c1.[Br-] |
| 11.2 ± 0.77 | C1COCCO1 [1,4-dioxane] + C[n+]1ccn(CCCB(O)O)c1.[Br-] |
| 2.56 ± 0.17 | C#CCCCCC [1-heptyne] + C=CC[n+]1ccn(CCCCCCCC)c1.[Br-] |
| 2.58 ± 0.18 | C#CCCCCC [1-heptyne] + C=CC[n+]1ccn(CCCCCCCCCC)c1.[Br-] |
| 1.87 ± 0.13 | C#CCCCCC [1-heptyne] + C=CC[n+]1ccn(CCCCCCCCCCCC)c1.[Br-] |
| 13.2 ± 0.9 | C#CCCCCC [1-heptyne] + C=CCn1cc[n+](C)c1.[Br-] |
| 2.2 ± 0.15 | C#CCCCCC [1-heptyne] + CCCCCCCCCCCC[n+]1ccn(CCCB(O)O)c1.[Br-] |
| 2.22 ± 0.15 | C#CCCCCC [1-heptyne] + CCCCCCCCCC[n+]1ccn(CCCB(O)O)c1.[Br-] |
| 3.7 ± 0.25 | C#CCCCCC [1-heptyne] + CCCCCCCC[n+]1ccn(CCCB(O)O)c1.[Br-] |
| 42.9 ± 2.9 | C#CCCCCC [1-heptyne] + C[n+]1ccn(CCCB(O)O)c1.[Br-] |
| 2.04 ± 0.14 | C#CCCCC [1-hexyne] + C=CC[n+]1ccn(CCCCCCCC)c1.[Br-] |
| 2.02 ± 0.14 | C#CCCCC [1-hexyne] + C=CC[n+]1ccn(CCCCCCCCCC)c1.[Br-] |
| 1.56 ± 0.1 | C#CCCCC [1-hexyne] + C=CC[n+]1ccn(CCCCCCCCCCCC)c1.[Br-] |
| 8.27 ± 0.56 | C#CCCCC [1-hexyne] + C=CCn1cc[n+](C)c1.[Br-] |
| 1.86 ± 0.13 | C#CCCCC [1-hexyne] + CCCCCCCCCCCC[n+]1ccn(CCCB(O)O)c1.[Br-] |
| 1.77 ± 0.12 | C#CCCCC [1-hexyne] + CCCCCCCCCC[n+]1ccn(CCCB(O)O)c1.[Br-] |
| 2.77 ± 0.19 | C#CCCCC [1-hexyne] + CCCCCCCC[n+]1ccn(CCCB(O)O)c1.[Br-] |
| 0.29 ± 0.03 | CC(C)CO [2-methyl-1-propanol] + C=CC[n+]1ccn(CCCCCCCC)c1.[Br-] |
| 0.29 ± 0.03 | CC(C)CO [2-methyl-1-propanol] + C=CC[n+]1ccn(CCCCCCCCCC)c1.[Br-] |
| 0.23 ± 0.03 | CC(C)CO [2-methyl-1-propanol] + C=CC[n+]1ccn(CCCCCCCCCCCC)c1.[Br-] |
| 0.33 ± 0.03 | CC(C)CO [2-methyl-1-propanol] + C=CCn1cc[n+](C)c1.[Br-] |
| 0.98 ± 0.06 | CC#N [acetonitrile] + C=CC[n+]1ccn(CCCCCCCC)c1.[Br-] |

| activity coefficient | SMILES |
| --- | --- |
| 0.89 ± 0.06 | CC#N [acetonitrile] + C=CC[n+]1ccn(CCCCCCCCCC)c1.[Br-] |
| 0.86 ± 0.06 | CC#N [acetonitrile] + C=CC[n+]1ccn(CCCCCCCCCCCC)c1.[Br-] |
| 1.04 ± 0.07 | CC#N [acetonitrile] + C=CCn1cc[n+](C)c1.[Br-] |
| 1.16 ± 0.07 | CC#N [acetonitrile] + CCCCCCCCCCCC[n+]1ccn(CCCB(O)O)c1.[Br-] |
| 0.95 ± 0.06 | CC#N [acetonitrile] + CCCCCCCCCC[n+]1ccn(CCCB(O)O)c1.[Br-] |
| 1.28 ± 0.08 | CC#N [acetonitrile] + CCCCCCCC[n+]1ccn(CCCB(O)O)c1.[Br-] |
| 3.3 ± 0.22 | CC#N [acetonitrile] + C[n+]1ccn(CCCB(O)O)c1.[Br-] |
| 1.4 ± 0.09 | c1ccccc1 [benzene] + C=CC[n+]1ccn(CCCCCCCC)c1.[Br-] |
| 1.39 ± 0.09 | c1ccccc1 [benzene] + C=CC[n+]1ccn(CCCCCCCCCC)c1.[Br-] |
| 1.08 ± 0.07 | c1ccccc1 [benzene] + C=CC[n+]1ccn(CCCCCCCCCCCC)c1.[Br-] |
| 3.6 ± 0.25 | c1ccccc1 [benzene] + C=CCn1cc[n+](C)c1.[Br-] |
| 1.21 ± 0.08 | c1ccccc1 [benzene] + CCCCCCCCCCCC[n+]1ccn(CCCB(O)O)c1.[Br-] |
| 1.33 ± 0.09 | c1ccccc1 [benzene] + CCCCCCCCCC[n+]1ccn(CCCB(O)O)c1.[Br-] |
| 1.84 ± 0.12 | c1ccccc1 [benzene] + CCCCCCCC[n+]1ccn(CCCB(O)O)c1.[Br-] |
| 18.1 ± 1.2 | c1ccccc1 [benzene] + C[n+]1ccn(CCCB(O)O)c1.[Br-] |
| 5.66 ± 0.39 | C1CCCCC1 [cyclohexane] + C=CC[n+]1ccn(CCCCCCCC)c1.[Br-] |
| 5.64 ± 0.38 | C1CCCCC1 [cyclohexane] + C=CC[n+]1ccn(CCCCCCCCCC)c1.[Br-] |
| 3.12 ± 0.21 | C1CCCCC1 [cyclohexane] + C=CC[n+]1ccn(CCCCCCCCCCCC)c1.[Br-] |
| 15.7 ± 1.1 | C1CCCCC1 [cyclohexane] + C=CCn1cc[n+](C)c1.[Br-] |
| 3.25 ± 0.22 | C1CCCCC1 [cyclohexane] + CCCCCCCCCCCC[n+]1ccn(CCCB(O)O)c1.[Br-] |
| 3.89 ± 0.26 | C1CCCCC1 [cyclohexane] + CCCCCCCCCC[n+]1ccn(CCCB(O)O)c1.[Br-] |
| 8.15 ± 0.56 | C1CCCCC1 [cyclohexane] + CCCCCCCC[n+]1ccn(CCCB(O)O)c1.[Br-] |
| 0.28 ± 0.03 | ClCCl [dichloromethane] + C=CC[n+]1ccn(CCCCCCCC)c1.[Br-] |
| 0.27 ± 0.03 | ClCCl [dichloromethane] + C=CC[n+]1ccn(CCCCCCCCCC)c1.[Br-] |
| 0.25 ± 0.03 | ClCCl [dichloromethane] + C=CC[n+]1ccn(CCCCCCCCCCCC)c1.[Br-] |

Second part, the compound before the results:

| SMILES | activity coefficient |
| --- | --- |
| Cc1ccccc1C [1,2-dimethylbenzene] + C=CC[n+]1ccn(CCCCCCCC)c1.[Br-] | 2.39 ± 0.16 |
| Cc1ccccc1C [1,2-dimethylbenzene] + C=CC[n+]1ccn(CCCCCCCCCC)c1.[Br-] | 2.34 ± 0.16 |
| Cc1ccccc1C [1,2-dimethylbenzene] + C=CC[n+]1ccn(CCCCCCCCCCCC)c1.[Br-] | 1.66 ± 0.11 |
| Cc1ccccc1C [1,2-dimethylbenzene] + C=CCn1cc[n+](C)c1.[Br-] | 8.98 ± 0.61 |
| Cc1ccccc1C [1,2-dimethylbenzene] + CCCCCCCCCCCC[n+]1ccn(CCCB(O)O)c1.[Br-] | 1.78 ± 0.12 |
| Cc1ccccc1C [1,2-dimethylbenzene] + CCCCCCCCCC[n+]1ccn(CCCB(O)O)c1.[Br-] | 1.89 ± 0.13 |
| Cc1ccccc1C [1,2-dimethylbenzene] + CCCCCCCC[n+]1ccn(CCCB(O)O)c1.[Br-] | 3.11 ± 0.21 |
| Cc1ccccc1C [1,2-dimethylbenzene] + C[n+]1ccn(CCCB(O)O)c1.[Br-] | 44 ± 3 |
| Cc1cccc(C)c1 [1,3-dimethylbenzene] + C=CC[n+]1ccn(CCCCCCCC)c1.[Br-] | 2.73 ± 0.19 |
| Cc1cccc(C)c1 [1,3-dimethylbenzene] + C=CC[n+]1ccn(CCCCCCCCCC)c1.[Br-] | 2.73 ± 0.19 |
| Cc1cccc(C)c1 [1,3-dimethylbenzene] + C=CC[n+]1ccn(CCCCCCCCCCCC)c1.[Br-] | 1.85 ± 0.12 |
| Cc1cccc(C)c1 [1,3-dimethylbenzene] + C=CCn1cc[n+](C)c1.[Br-] | 11.1 ± 0.76 |
| Cc1cccc(C)c1 [1,3-dimethylbenzene] + CCCCCCCCCCCC[n+]1ccn(CCCB(O)O)c1.[Br-] | 1.98 ± 0.13 |
| Cc1cccc(C)c1 [1,3-dimethylbenzene] + CCCCCCCCCC[n+]1ccn(CCCB(O)O)c1.[Br-] | 2.11 ± 0.14 |
| Cc1cccc(C)c1 [1,3-dimethylbenzene] + CCCCCCCC[n+]1ccn(CCCB(O)O)c1.[Br-] | 3.57 ± 0.24 |
| Cc1cccc(C)c1 [1,3-dimethylbenzene] + C[n+]1ccn(CCCB(O)O)c1.[Br-] | 48.1 ± 3.3 |
| C1COCCO1 [1,4-dioxane] + C=CC[n+]1ccn(CCCCCCCC)c1.[Br-] | 1.52 ± 0.1 |

| SMILES | activity coefficient |
| --- | --- |
| C1COCCO1 [1,4-dioxane] + C=CC[n+]1ccn(CCCCCCCCCC)c1.[Br-] | 1.39 ± 0.09 |
| CCC[N+](=O)[O-] [1-nitropropane] + C=CC[n+]1ccn(CCCCCCCC)c1.[Br-] | 1.23 ± 0.08 |
| CCC[N+](=O)[O-] [1-nitropropane] + C=CC[n+]1ccn(CCCCCCCCCC)c1.[Br-] | 1.14 ± 0.07 |
| CCC[N+](=O)[O-] [1-nitropropane] + C=CC[n+]1ccn(CCCCCCCCCCCC)c1.[Br-] | 1.12 ± 0.07 |
| CCC[N+](=O)[O-] [1-nitropropane] + C=CCn1cc[n+](C)c1.[Br-] | 1.83 ± 0.12 |
| CCC[N+](=O)[O-] [1-nitropropane] + CCCCCCCCCCCC[n+]1ccn(CCCB(O)O)c1.[Br-] | 1.51 ± 0.1 |
| CCC[N+](=O)[O-] [1-nitropropane] + CCCCCCCCCC[n+]1ccn(CCCB(O)O)c1.[Br-] | 1.19 ± 0.08 |
| CCC[N+](=O)[O-] [1-nitropropane] + CCCCCCCC[n+]1ccn(CCCB(O)O)c1.[Br-] | 1.58 ± 0.1 |
| CCC[N+](=O)[O-] [1-nitropropane] + C[n+]1ccn(CCCB(O)O)c1.[Br-] | 15.8 ± 1.1 |
| CCC(C)=O [butanone] + C=CC[n+]1ccn(CCCCCCCC)c1.[Br-] | 1.46 ± 0.1 |
| CCC(C)=O [butanone] + C=CC[n+]1ccn(CCCCCCCCCC)c1.[Br-] | 1.48 ± 0.1 |
| CCC(C)=O [butanone] + C=CC[n+]1ccn(CCCCCCCCCCCC)c1.[Br-] | 1.43 ± 0.09 |
| CCC(C)=O [butanone] + C=CCn1cc[n+](C)c1.[Br-] | 2.68 ± 0.18 |
| CCC(C)=O [butanone] + CCCCCCCCCCCC[n+]1ccn(CCCB(O)O)c1.[Br-] | 1.33 ± 0.09 |
| CCC(C)=O [butanone] + CCCCCCCCCC[n+]1ccn(CCCB(O)O)c1.[Br-] | 1.59 ± 0.11 |
| CCC(C)=O [butanone] + CCCCCCCC[n+]1ccn(CCCB(O)O)c1.[Br-] | 1.88 ± 0.13 |
| CCC(C)=O [butanone] + C[n+]1ccn(CCCB(O)O)c1.[Br-] | 21.8 ± 1.5 |

— the NIST ThermoML archive (doi:10.1021/je060033f)
